Experimental findings from ChEMBL document CHEMBL1130613, “Design and synthesis of dipeptidyl alpha',beta'-epoxy ketones, potent irreversible inhibitors of the cysteine protease cruzain” (Bioorg Med Chem Lett, 1998) are described below.

The target of the assay is Cruzipain (Trypanosoma cruzi) (UniProt P25779). As to the kind of experiment: Second order rate constant for inhibition of cruzain.
Chain of Cruzipain (Trypanosoma cruzi) (P25779 123-467 limits assumed): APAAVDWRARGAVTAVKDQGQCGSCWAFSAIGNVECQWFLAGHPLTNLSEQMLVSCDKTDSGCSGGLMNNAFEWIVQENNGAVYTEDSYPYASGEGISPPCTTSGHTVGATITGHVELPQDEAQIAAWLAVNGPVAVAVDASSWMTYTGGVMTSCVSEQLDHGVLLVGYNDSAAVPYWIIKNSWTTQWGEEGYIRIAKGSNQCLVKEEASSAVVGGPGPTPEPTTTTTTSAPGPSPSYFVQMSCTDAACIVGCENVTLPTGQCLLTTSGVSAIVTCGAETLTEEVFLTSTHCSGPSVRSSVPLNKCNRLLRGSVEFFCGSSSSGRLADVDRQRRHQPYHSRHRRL

The compound `CC(C)CCNC(=O)[C@H](CC(C)C)NC(=O)[C@H]1OC1C(=O)O` (single isomer, unassigned) displayed a K inact/Ki of 70600 M⁻¹ s⁻¹.

`C[C@H](NC(=O)[C@H](Cc1ccccc1)NC(=O)OCc1ccccc1)C(=O)[C@@H]1CO1` showed a K inact/Ki of 128000 M⁻¹ s⁻¹.

In turn, `O=C(N[C@@H](Cc1ccccc1)C(=O)N[C@@H](CCc1ccccc1)C(=O)[C@@H]1CO1)OCc1ccccc1` gave a K inact/Ki of 330000 M⁻¹ s⁻¹.
